This note sets out measurements from article PMC11882969 (Nature Communications, 2025).

Each structure is given as a SMILES string.

The target of test [1] is T1, CB1 (rCB1) (Rattus norvegicus, UniProt P20272). Kind of test: Radioligand competition binding, [3H]-CP-55,940, rat brain membranes. Conditions: for pKi [95% CI]: rCB1; for Ki: read-out: Ki [95% CI], rCB1, [3H]-CP-55,940.
Test [2] deals with T1, CB1 (rCB1). As to the kind of experiment: Single-point radioligand displacement screen. The test is classed as binding. Conditions: for % 1H-CP-55,940 displacement (mean) from single point screen: 10 µM, 1 µM or 300 nM by cell colour (not visible); for rep1_displacement / rep2_displacement / rep3_displacement: Figure 1c source data; for rep1_displacement: replicate 1; for rep2_displacement: replicate 2; for rep3_displacement: replicate 3; for % radioligand displacement [S.D]: single point at 10 µM, three replicates. A general note: Loss of bound radioactivity is the signal in a displacement assay; it reports binding, not function.

T1 sequence (P20272 whole entry): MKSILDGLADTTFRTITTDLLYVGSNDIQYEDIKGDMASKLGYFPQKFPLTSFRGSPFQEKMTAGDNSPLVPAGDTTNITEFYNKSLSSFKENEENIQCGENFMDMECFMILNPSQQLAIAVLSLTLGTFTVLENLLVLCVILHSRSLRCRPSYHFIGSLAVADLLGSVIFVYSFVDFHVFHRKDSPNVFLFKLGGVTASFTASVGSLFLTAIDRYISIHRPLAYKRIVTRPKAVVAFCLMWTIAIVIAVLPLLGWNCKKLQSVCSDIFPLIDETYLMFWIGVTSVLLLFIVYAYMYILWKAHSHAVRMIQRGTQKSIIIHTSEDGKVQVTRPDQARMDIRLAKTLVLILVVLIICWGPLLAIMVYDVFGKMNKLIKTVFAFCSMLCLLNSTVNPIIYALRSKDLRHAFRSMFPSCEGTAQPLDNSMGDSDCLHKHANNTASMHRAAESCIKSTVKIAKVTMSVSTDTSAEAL

A word on the Ki: it is the dissociation constant of the complex between target and ligand, obtained from inhibition or displacement. Regarding `CCCCCCC(C)(C)c1cc(O)c2c(c1)OC(C)(C)C1CCC(=O)CC21` (stereo not drawn) [Nabilone, reference compound], at CB1 (rCB1) [1], the “pKi [95% CI]” value was 8.6 [8.4 – 8.9] and the Ki came out at 2.3 nM.

`Cc1cc(C(=O)NC(C)(c2ccccc2)c2ccco2)nn1-c1cccc(C(F)(F)F)c1` (stereo not drawn) [‘5806]: the “pKi [95% CI]” value at CB1 (rCB1) [1] was 8.1 [7.7 – 8.5]. Further, at CB1 (rCB1) [1] (vs parent hit or analog without the change), the “fold improvement in CB1R affinity” value is reported as about 15 fold.

Turning to `COC(=O)C(NC(=O)c1cc(-c2ccccc2)n(-c2cccc(C(F)(F)F)c2)n1)c1cccs1` (stereo not drawn) [‘8079], on CB1 (rCB1) [1], the “pKi [95% CI]” value is 7.7 [7.6 – 7.9] and the Ki was 18.5 nM.

`CC(=O)C(C)(NC(=O)c1cc(C)n(-c2cccc(C(F)(F)F)c2)n1)c1cccs1` (stereo not drawn) [‘4156]: at CB1 (rCB1) [1], the “pKi [95% CI]” value was 7.9 [7.5 – 8.2] and the Ki was 13.5 nM.

On to `COC(=O)[C@H](c1cccs1)N(C)C(=O)c1cc(C)n(-c2cccc(C(F)(F)F)c2)n1` [‘1066], for which, on CB1 (rCB1) [1], the “pKi [95% CI]” value was 5.8 [5.4 – 6.1] and the Ki is 1720 nM.

Regarding `COC(=O)C(c1ccco1)N(C)C(=O)c1cc(C)n(-c2cccc(C(F)(F)F)c2)n1` (stereo not drawn) [‘6425], on CB1 (rCB1) [1], the “pKi [95% CI]” value was 6.0 [5.8 – 6.2] and the Ki is 934 nM.

As for `COC(=O)[C@@H](c1cccs1)N(C)C(=O)c1cc(C)n(-c2cccc(C(F)(F)F)c2)n1` [‘6000], on CB1 (rCB1) [1], the “pKi [95% CI]” value was 5.8 [5.7 – 6.0] and the Ki stood at 1460 nM.

As for `COC(=O)c1cc(C(=O)N2CCc3ccc(Cl)cc3C2)cc([N+](=O)[O-])c1` [compound 25719], at CB1 (rCB1) [2], the “% 1H-CP-55,940 displacement (mean) from single point screen” value (“% 1H-CP-55,940 displacement (mean)” for short) was found to be 24.96%, the rep1_displacement is listed as 30.1, the rep2_displacement is 24.6 and the rep3_displacement came out at 20.2.

In the case of `Cc1cc(C(=O)N2CC3(CCC3)C2C2CCOCC2)nn1-c1cccc(C(F)(F)F)c1` (stereo not drawn) [10_19], at CB1 (rCB1) [2], the “% 1H-CP-55,940 displacement (mean)” value is given as 82.61%.

Consider `COC(=O)[C@@H](NC(=O)c1cc(C)n(-c2cccc(F)c2)n1)c1ccc(OC)cc1` [compound 59513], for which, at CB1 (rCB1) [2], the “% 1H-CP-55,940 displacement (mean)” value was determined as 10.54%.

Regarding `O=C(OCc1ncnn1-c1ccccc1)c1csc(Cc2ccccc2F)n1` [compound 67565], at CB1 (rCB1) [2], the “% 1H-CP-55,940 displacement (mean)” value is listed as 8.02%, the rep1_displacement stood at 8 and the rep3_displacement was 8.

As for `Cc1cc(C(=O)NC(c2cccs2)C(C)(C)CO)nn1-c1cccc(Cl)c1` (stereo not drawn) [compound 78220], the “% 1H-CP-55,940 displacement (mean)” value at CB1 (rCB1) [2] is on record as 5.56%.

For the compound `CCc1nc(C(=O)NC(c2ccccc2)c2cccnc2)nn1-c1ccccc1Cl` (stereo not drawn) [compound 00051], at CB1 (rCB1) [2], the “% 1H-CP-55,940 displacement (mean)” value worked out at 16.02%, the rep1_displacement is 20.4, the rep2_displacement is listed as 19.7 and the rep3_displacement is recorded as 7.9.

As for `Cc1cc(C(=O)Nc2ccnn2-c2cccc(Cl)c2)nn1[C@H](C)C1CC1` [‘7902], at CB1 (rCB1) [2], the “% 1H-CP-55,940 displacement (mean)” value came out at 57.08%, the rep1_displacement stood at 57, the rep2_displacement was determined as 57.3 and the rep3_displacement is listed as 57. Also, the “% radioligand displacement [S.D]” value on CB1 (rCB1) [2] was 57.1% [0.02].

Regarding `O=C(OCC1CSc2ccccc2O1)c1ccc(Cn2cccc2)cc1` (stereo not drawn) [compound 30177], the “% 1H-CP-55,940 displacement (mean)” value on CB1 (rCB1) [2] is listed as 18.40%.

In the case of `C=CCn1c(SC(C)COC)nc2cc(-c3ccccc3)sc2c1=O` (stereo not drawn) [compound 50746], at CB1 (rCB1) [2], the “% 1H-CP-55,940 displacement (mean)” value is listed as 26.93%, the rep1_displacement is reported as 27.8, the rep2_displacement stood at 26.8 and the rep3_displacement was 26.1.

As to `Cn1ncc2c(N3CCC(COCc4ccccc4)C3)nc(Cl)nc21` (stereo not drawn) [compound 66978], on CB1 (rCB1) [2], the “% 1H-CP-55,940 displacement (mean)” value was -5.01%, the rep1_displacement was 10, the rep2_displacement is -21.7 and the rep3_displacement is given as -3.3.

Take `O=C1C(=O)N(C23CC4CC(CC(C4)C2)C3)C(=O)N1CC1CCC(C(F)(F)F)CC1` (stereo not drawn) [compound 8441]: at CB1 (rCB1) [2], the “% 1H-CP-55,940 displacement (mean)” value is on record as 47.91%, the rep1_displacement came to 51.8, the rep2_displacement turned out to be 42.6 and the rep3_displacement came to 49.3.

For `Cc1c(C(=O)OCC2CSc3ccccc3O2)nnn1Cc1ccc(F)cc1` (stereo not drawn) [compound 61926], the “% 1H-CP-55,940 displacement (mean)” value on CB1 (rCB1) [2] is 64.39%.

Take `Cc1cc(C(=O)N2CC3(CCC3)C2c2ccco2)nn1-c1cccc(C(F)(F)F)c1` (stereo not drawn) [10_10]: the “% 1H-CP-55,940 displacement (mean)” value on CB1 (rCB1) [2] came out at 94.41%.

Regarding `COC(=O)C(NC(=O)c1csc(Cc2ccccc2)n1)c1cccs1` (stereo not drawn) [compound 61815], at CB1 (rCB1) [2], the “% 1H-CP-55,940 displacement (mean)” value is reported as 32.97%.

For `Cn1nc(-c2nnc(CCOc3ccc(Cl)cc3)o2)c2ccccc2c1=O` [0450_24], the “% 1H-CP-55,940 displacement (mean)” value at CB1 (rCB1) [2] is recorded as 12.07%.

Regarding `O=C(CCc1ccccc1)c1cn(C2(c3ccc(F)cc3)CCOCC2)nn1` [‘7337], at CB1 (rCB1) [2], the “% 1H-CP-55,940 displacement (mean)” value is reported as 56.96%, the rep1_displacement is 60.4, the rep2_displacement turned out to be 55.9 and the rep3_displacement worked out at 54.6. For the same compound, the “% radioligand displacement [S.D]” value at CB1 (rCB1) [2] worked out at 57.0% [3.04].

`O=C(c1ccccc1CS(=O)(=O)c1ccccc1)N1CCC(c2cccc(F)c2)C1` (stereo not drawn) [compound 41949]: on CB1 (rCB1) [2], the “% 1H-CP-55,940 displacement (mean)” value is 33.74%, the rep1_displacement is recorded as 30, the rep2_displacement is recorded as 36.7 and the rep3_displacement is reported as 34.6.

For the compound `Cn1nc(-c2nnc(C(C)(C)Oc3ccc(C#N)cc3)o2)c2ccccc2c1=O` [0450_23], the “% 1H-CP-55,940 displacement (mean)” value at CB1 (rCB1) [2] is recorded as -19.18%.

Regarding `COc1cc(C(=O)OCC2CCCN2c2ccc(C)nn2)ccc1Cl` (stereo not drawn) [compound 65703], at CB1 (rCB1) [2], the “% 1H-CP-55,940 displacement (mean)” value is 17.38%, the rep1_displacement is reported as 11.4, the rep2_displacement is 18.4 and the rep3_displacement is 22.4.

On to `CCOC(=O)c1nc(-c2nc(Cc3cc4c(cc3Br)OCO4)no2)cs1` [7019_300], for which, at CB1 (rCB1) [2], the “% 1H-CP-55,940 displacement (mean)” value amounted to 3.83%.

As to `Cn1nc(CNC(=O)C(C)(C)Oc2ccc(Cl)cc2)c2ccccc2c1=O` [0450_26], the “% 1H-CP-55,940 displacement (mean)” value on CB1 (rCB1) [2] is 7.64%.

For the compound `Cc1cc(C(=O)NC(c2ccccc2)c2ccco2)nn1-c1cccc(F)c1` (stereo not drawn) [compound 88684], the “% 1H-CP-55,940 displacement (mean)” value on CB1 (rCB1) [2] is recorded as 39.72%.

Regarding `Cc1nc(CC2CC2)oc1-c1nc(Cc2ccc(OCc3ccccn3)cc2)no1` [compound 9841], at CB1 (rCB1) [2], the “% 1H-CP-55,940 displacement (mean)” value was determined as 19.42%.

For the compound `Cc1c(C(=O)NCC2CSc3ccccc3O2)cnn1-c1ccc(C(F)(F)F)cc1` (stereo not drawn) [compound 6445], the “% 1H-CP-55,940 displacement (mean)” value at CB1 (rCB1) [2] was found to be 46.11%.

With `Cc1c(C(=O)OCC2CN(c3ccccc3)C(=O)O2)cnn1Cc1ccccc1` (stereo not drawn) [compound 5081], the “% 1H-CP-55,940 displacement (mean)” value on CB1 (rCB1) [2] was found to be 31.79%.

For the compound `O=C(OCc1ccc(Cl)cc1-n1cncn1)c1ccnc(OC2CCC2)c1` [compound 91451], on CB1 (rCB1) [2], the “% 1H-CP-55,940 displacement (mean)” value was found to be 17.98%, the rep1_displacement stood at 15.6 and the rep2_displacement is given as 20.4.

Regarding `O=C(OCC1CSc2ccccc2O1)c1cn(Cc2cccc(F)c2)nn1` (stereo not drawn) [compound 23346], on CB1 (rCB1) [2], the “% 1H-CP-55,940 displacement (mean)” value stood at 25.27%.

As for `Cc1nc(CC2CC2)oc1-c1nc(Cc2cc(Br)c3c(c2)OCO3)no1` [compound 53217], the “% 1H-CP-55,940 displacement (mean)” value on CB1 (rCB1) [2] is recorded as 14.33%.

In the case of `Cc1ccccc1-n1c(=O)c2ccccc2n2c(SC[C@H]3CCCO3)nnc12` [compound 97662], at CB1 (rCB1) [2], the “% 1H-CP-55,940 displacement (mean)” value came to 18.48%, the rep1_displacement was determined as 20.6, the rep2_displacement came out at 19.4 and the rep3_displacement amounted to 15.5.

Regarding `O=c1c2cnn(-c3ccccc3)c2nnn1Cc1cc(Cl)ccc1Cl` [compound 59552], at CB1 (rCB1) [2], the “% 1H-CP-55,940 displacement (mean)” value is on record as 38.03%, the rep1_displacement was found to be 36.6, the rep2_displacement was found to be 38.4 and the rep3_displacement turned out to be 39.1.

For `COC(=O)C(NC(=O)c1cn(Cc2ccccc2)nn1)c1cccs1` (stereo not drawn) [compound 54064], the “% 1H-CP-55,940 displacement (mean)” value on CB1 (rCB1) [2] is 4.29%.
